Columns and labels:
[1] = target: recombinant thioredoxin reductase 1 (TrxR1) (Homo sapiens (Human), UniProt Q16881); assay: Inhibition of recombinant TrxR1 (DTNB assay); type: biochemical; conditions: 30 nM TrxR1, 250 μM NADPH, 15 minutes incubation, O.D. 412 nm, read-out: TrxR inhibition (IC50)
Method: (§1) Small molecule inhibition of recombinant thioredoxin reductase 1 (TrxR1) and gluthathione reductase (GR) was examined in 96-well plate format. 30 nM TrxR1 was incubated in the presence of 250 μM NADPH, 0.1 mg/ml BSA, and various concentrations of compound (1% DMSO final) in 50 mM Tris (pH 7.5) and 2 mM EDTA buffer for 15 minutes. Following the incubation period, 2 mM DTNB was added to each well and the change in O.D. at 412 nm was followed. Percent activity was determined using DMSO vehicle and no TrxR1 (blank) controls. 2 nM GR was incubated in the presence of 250 μM NADPH, 0.1 mg/ml BSA, and various concentrations of compounds (1% DMSO final) in 50 mM Tris (pH 7.5) and 2 mM EDTA buffer for 15 minutes. Following the incubation period, 1 mM GSSG was added to each well and the change in O.D. at 340 nm was followed. Percent activity was determined using DMSO vehicle and no GR (blank) controls.

[2] = target: recombinant gluthathione reductase (GR) (Homo sapiens (Human), UniProt P00390); assay: Inhibition of recombinant GR (GSSG assay); type: biochemical; conditions: 2 nM GR, 250 μM NADPH, 15 minutes incubation, O.D. 340 nm
Chain of recombinant gluthathione reductase (GR) (P00390 44-522): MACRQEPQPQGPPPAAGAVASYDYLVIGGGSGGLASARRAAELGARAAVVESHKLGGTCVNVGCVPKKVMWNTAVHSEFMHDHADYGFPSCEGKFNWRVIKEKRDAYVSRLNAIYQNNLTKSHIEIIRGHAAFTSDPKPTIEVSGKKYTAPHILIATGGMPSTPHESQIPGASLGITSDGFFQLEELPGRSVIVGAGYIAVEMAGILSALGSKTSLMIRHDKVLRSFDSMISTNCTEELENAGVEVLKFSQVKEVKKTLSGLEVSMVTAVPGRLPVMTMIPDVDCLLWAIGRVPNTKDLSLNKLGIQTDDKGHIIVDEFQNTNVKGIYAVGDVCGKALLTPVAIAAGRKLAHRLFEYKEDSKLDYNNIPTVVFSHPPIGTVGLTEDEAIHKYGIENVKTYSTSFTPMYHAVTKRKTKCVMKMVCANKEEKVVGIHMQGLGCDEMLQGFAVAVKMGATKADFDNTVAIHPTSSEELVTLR
Method: as §1

MDA-MB-231 cells = assay: Breast cancer cell viability assay (Alamar Blue); type: cell-based; conditions: Homo sapiens, 72 hrs, 10% FBS media containing 25 nM selenite, 2000 cells/well
Method: MDA-MB-231 cells were plated 2000 cells/well in 96-well black optical plates in the presence of 10% FBS media containing 25 nM selenite. The following day cells were treated with various concentrations of compounds (0.1% DMSO final) and incubated for 72 hrs. After the incubation Alamar Blue reagent was added to each well and incubated for additional 3 hrs. Fluorescence was read ex:530 nm/em:590 nm, and percent of viability was determined using DMSO vehicle and no cell (blank) controls.

U-87 MG = assay: Cancer cell viability assay (MTT), U-87 MG; type: cell-based; conditions: Homo sapiens, 72 hrs, 4000 cells/well, 10% FBS media
Method: (§2) Breast cancer and glioblastoma cell lines were plated 4000 cells/well in 96-well plates in the presence of 10% FBS media. The following day cells were treated with various concentrations of the compound of Example 1 (0.1% DMSO final) and incubated for 72 hrs. After the incubation An MTT assay was performed to access cell viability. Percent of viability was determined using DMSO vehicle and no cell (blank) controls.

MDA-MB-231 = assay: Cancer cell viability assay (MTT), MDA-MB-231; type: cell-based; conditions: Homo sapiens, 72 hrs, 4000 cells/well, 10% FBS media
Method: as §2

MDA-MB-468 = assay: Cancer cell viability assay (MTT), MDA-MB-468; type: cell-based; conditions: Homo sapiens, 72 hrs, 4000 cells/well, 10% FBS media
Method: as §2

Chain of recombinant thioredoxin reductase 1 (TrxR1) (Q16881 151-649): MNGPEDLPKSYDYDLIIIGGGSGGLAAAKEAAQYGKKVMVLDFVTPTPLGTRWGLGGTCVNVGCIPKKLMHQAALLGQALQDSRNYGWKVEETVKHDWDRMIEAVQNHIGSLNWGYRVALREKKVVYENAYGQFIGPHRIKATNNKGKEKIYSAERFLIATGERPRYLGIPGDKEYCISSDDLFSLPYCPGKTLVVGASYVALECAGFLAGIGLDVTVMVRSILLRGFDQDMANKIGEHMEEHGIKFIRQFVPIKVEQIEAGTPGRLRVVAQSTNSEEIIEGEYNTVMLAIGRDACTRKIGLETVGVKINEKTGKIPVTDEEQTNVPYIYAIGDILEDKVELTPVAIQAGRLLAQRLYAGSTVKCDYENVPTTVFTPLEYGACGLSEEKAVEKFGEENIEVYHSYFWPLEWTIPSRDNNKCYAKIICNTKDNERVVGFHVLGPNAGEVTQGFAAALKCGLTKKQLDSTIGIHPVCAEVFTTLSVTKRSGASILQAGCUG

Which results are given for COc1ccc([N+](=O)[O-])c([S+]([O-])c2ccc(Cl)cc2)n1 (stereo not drawn) [Example 1, 2-((4-Chlorophenyl)sulfinyl)-6-methoxy-3-nitropyridine]?
IC50 [1]: 0.00316 µM; IC50 [2]: 41.3 µM; IC50 (MDA-MB-231 cells): 2.99 µM; IC50 (U-87 MG): 6.76 µM; IC50 (MDA-MB-231): 5.26 µM; IC50 (MDA-MB-468): 3.86 µM
